Each structure is given as a SMILES string.

By IC50 is commonly meant the concentration needed to halve the response being measured.

The target of the assay is recombinant His-tag Wip1(2-420) protein (amino acids #2-420) (Homo sapiens (Human), UniProt O15297). Description: Wip1(2-420) phosphatase enzyme FDP assay. Format: biochemical. To be noted: fluorescein diphosphate (FDP) substrate, RT 2 hours, fluorescence Ex485/Em535; read-out: WIP1 (Truncated 2-420) FDP Assay: IC50. As for the experimental part: The Human Wip1 (2-420, aa 2-420) or Wip1 full length (aa 1-605) DNA sequence was codon optimized and synthesized by Genscript for insect cell expression. The open reading frame of Wip1(2-420) with a N-terminal-His6 affinity tag followed by a TEV cleavage site was subcloned sites into the pFastBac1 expression vector. The recombinant bacmid DNA was transfected in Sf9 insect cells for baculovirus production. After 72 hours infection, the Sf9 cells were harvested by centrifugation and resuspended in lysis buffer containing 50 mM Tris/HCl, pH 8.0, 500 mM NaCl, 20% glycerol, Benzonase 0.5% CHAPS and Roche cOmplete™ EDTA free protease inhibitors. Cells were disrupted with microfluidizer and the debris was removed by centrifugation at 185,000 g for 1 hour. The supernatant was subjected to HisTrap FF for affinity purification. Proteins were eluted with a linear gradient of 0-500 mM imidazole in HisTrap buffer containing 50 mM Tris/HCl, pH 8.0, 500 mM NaCl and 20% glycerol, 0.05% CHAPS. The eluted protein was dialyzed against dialysis buffer (20 mM MES, 100 mM NaCl, 20% glycerol, 0.5 mM TCEP, 0.05% CHAPS) followed purification via HiTrap SP HP column. The protein was eluted with a gradient of 100 mM-2 M NaCl in dialysis buffer. His6-[…] was finally concentrated and loaded onto a size-exclusion column (NiLoad 16/600 Superdex 200 pg, GE Healthcare) pre-equilibrated with 50 mM MOPS (pH 7.5), 200 mM NaCl, 20% glycerol, 1 mM TCEP, 0.05% CHAPS and 0.1 mM EGTA. The peak fractions containing purified Nis6-Wip1(2-420) were pooled and concentrated to 1.0 mg/mL and flash frozen at −80° C.
Sequence of recombinant His-tag Wip1(2-420) protein (amino acids #2-420) (O15297 2-420): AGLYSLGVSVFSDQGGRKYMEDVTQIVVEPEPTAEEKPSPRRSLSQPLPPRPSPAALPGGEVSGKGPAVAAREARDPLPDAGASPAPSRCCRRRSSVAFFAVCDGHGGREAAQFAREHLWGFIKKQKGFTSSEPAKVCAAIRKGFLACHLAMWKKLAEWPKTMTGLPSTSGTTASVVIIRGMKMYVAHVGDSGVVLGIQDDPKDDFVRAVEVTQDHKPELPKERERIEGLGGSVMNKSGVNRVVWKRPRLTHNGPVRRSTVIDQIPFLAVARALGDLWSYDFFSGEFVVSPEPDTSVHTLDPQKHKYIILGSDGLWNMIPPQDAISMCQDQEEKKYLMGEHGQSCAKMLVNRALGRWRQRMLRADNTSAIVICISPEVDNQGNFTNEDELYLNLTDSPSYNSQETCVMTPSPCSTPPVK
Wip1 Length and Wip1(2-420) Phosphatase Enzyme FDP Assays.
Test compounds (252 mM stock in DMSO) were diluted 3 folds in series in DMSO and 1.2 μl per well were added into 384-well polypropylene black plates (Nunc). Twelve μl per well of Assay Buffer (100 mM NaCl, 50 mM MOPS, pH 7.5, 0.8 mM CHAPS, 0.1 mM EGTA, 30 mM MgCl2, 0.3 mM TCEP, 0.2 mg/mL BSA) was added followed by […] per well of 50.4 nM recombinant His-tag Wip1 full length protein (amino acids #1-605) or recombinant His-tag Wip1(2-420) protein (amino acids #2-420) in Assay Buffer and the plate was incubated at RT (22° C.) for 5 min. Ten mM of fluorescein diphosphate (FDP) in DMSO was diluted to […] in Assay Buffer and […] per well was added to the plate and incubated at RT (22° C.) for 2 hours. […] per well of 64.1 mM EDTA in water were added to stop the enzyme reaction. The plate was centrifuged at 1,200 rpm (Eppendorf 5810R Plate centrifuge) for 1 minute and fluorescence intensity (Ex485/Em535) was measured on Perkin Elmer Victor Reader. EC50 values were calculated using either Prism (GraphPad) or ActivityBase software (IDBS), The IC50 results are provided in Table M.

Take `Cc1ncc(Cl)cc1N[C@H](C)c1ncc(C(=O)N[C@@H](CC2CCCC2)C(=O)NC2CC2)s1` [Compound 127, (2S)-2-({2-[(1R)-1-[(5-chloro-2-methylpyridin-3-yl)amino]ethyl]-1,3-thiazol-5-yl}formamido)-3-cyclopentyl-N-cyclopropylpropanamide]: the IC50 worked out at 1550 nM.

Take `Cc1cc(NC(=O)[C@H](CC2CCCC2)NC(=O)c2cnc([C@H](C)Nc3cccc(Cl)c3)s2)cc(C)n1` [Compound 128, (2S)-2-({2-[(1S)-1-[(3-chlorophenyl)amino]ethyl]-1,3-thiazol-5-yl}formamido)-3-cyclopentyl-N-(2,6-dimethylpyridin-4-yl)propanamide]: the half-maximal inhibitory concentration (IC50) turned out to be 3910 nM.

Regarding `COCCN1CCCc2cc(NC(=O)[C@H](CC3CCCC3)NC(=O)c3ccc([C@H](C)Nc4cc(Cl)cnc4C)s3)ccc21` [Compound 129, (2S)-2-({5-[(1S)-1-[(5-chloro-2-methylpyridin-3-yl)amino]ethyl]thiophen-2-yl}formamido)-3-cyclopentyl-N-[1-(2-methoxyethyl)-1,2,3,4-tetrahydroquinolin-6-yl]propanamide], the IC50 amounted to 7 nM.

With `Cc1ncc(Cl)cc1NC(Cc1ccncc1)c1ccc(C(=O)N[C@@H](CC2CCCC2)C(=O)NC2CC2)s1` (stereo partly drawn) [Compound 130, (2S)-2-[(5-{1-[(5-chloro-2-methylpyridin-3-yl)amino]-2-(pyridin-4-yl)ethyl}thiophen-2-yl)formamido]-3-cyclopentyl-N-cyclopropylpropanamide], the half-maximal inhibitory concentration (IC50) came to 22 nM.

With `Cc1ncc(Cl)cc1NC(CC1CCN(C)CC1)c1ccc(C(=O)N[C@@H](CC2CCCC2)C(=O)NC2CC2)s1` (stereo partly drawn) [Compound 131, (2S)-2-[(5-{1-[(5-chloro-2-methylpyridin-3-yl)amino]-2-(1-methylpiperidin-4-yl)ethyl}thiophen-2-yl)formamido]-3-cyclopentyl-N-cyclopropylpropanamide], the IC50 came out at 80 nM.

On to `C[C@@H](Nc1cc(Cl)cnc1C(N)=O)c1ccc(C(=O)N[C@@H](CC2CCCC2)C(=O)NC23CC(C2)C3)s1` [Compound 132, 3-{[(1R)-1-(5-{[(1S)-1-({bicyclo[1.1.1]pentan-1-yl}carbamoyl)-2-cyclopentylethyl]carbamoyl}thiophen-2-yl)ethyl]amino}-5-chloropyridine-2-carboxamide], for which the half-maximal inhibitory concentration (IC50) was 76 nM.

Turning to `C[C@H](Nc1cc(Cl)cnc1C(N)=O)c1ccc(C(=O)N[C@@H](CC2CCCC2)C(=O)NC23CC(C2)C3)s1` [Compound 133, 3-{[(1S)-1-(5-{[(1S)-1-({bicyclo[1.1.1]pentan-1-yl}carbamoyl)-2-cyclopentylethyl]carbamoyl}thiophen-2-yl)ethyl]amino}-5-chloropyridine-2-carboxamide], the half-maximal inhibitory concentration (IC50) came out at 4 nM.

Regarding `Cc1ncc(Cl)cc1N[C@@H](C)c1ccc(C(=O)NC(CC2CCCC2)C(=O)Nc2c[nH]nn2)s1` (stereo partly drawn) [Compound 134, 2-({5-[(1S)-1-[(5-chloro-2-methylpyridin-3-yl)amino]ethyl]thiophen-2-yl}formamido)-3-cyclopentyl-N-(1H-1,2,3-triazol-4-yl)propanamide], the IC50 is 4 nM.

Take `Cc1ncc(Cl)cc1N[C@@H](C)c1ccc(C(=O)N[C@@H](CC2CCCC2)C(=O)Nc2ccnc(C(N)=O)c2)s1` [Compound 135, 4-[(2S)-2-({5-[(1S)-1-[(5-chloro-2-methylpyridin-3-yl)amino]ethyl]thiophen-2-yl}formamido)-3-cyclopentylpropanamido]pyridine-2-carboxamide]: the IC50 is 5 nM.

In the case of `C[C@H](Nc1cc(Cl)cnc1C(N)=O)c1ccc(C(=O)N[C@@H](CC2CCCC2)C(=O)Nc2cnn(C)c2)s1` [Compound 136, 5-chloro-3-{[(1S)-1-(5-{[(1S)-2-cyclopentyl-1-[(1-methyl-1H-pyrazol-4-yl)carbamoyl]ethyl]carbamoyl}thiophen-2-yl)ethyl]amino}pyridine-2-carboxamide], the IC50 is 5 nM.

Consider `C[C@@H](Nc1cc(Cl)cnc1C(N)=O)c1ccc(C(=O)N[C@@H](CC2CCCC2)C(=O)Nc2cnn(C)c2)s1` [Compound 137, 5-chloro-3-{[(1R)-1-(5-{[(1S)-2-cyclopentyl-1-[(1-methyl-1H-pyrazol-4-yl)carbamoyl]ethyl]carbamoyl}thiophen-2-yl)ethyl]amino}pyridine-2-carboxamide], for which the IC50 was 54 nM.

In the case of `Cc1ncc(Cl)cc1N[C@@H](C)c1ccc(C(=O)N[C@@H](CC2CCCC2)C(N)=O)s1` [Compound 138, (2S)-2-({5-[(1S)-1-[(5-chloro-2-methylpyridin-3-yl)amino]ethyl]thiophen-2-yl}formamido)-3-cyclopentylpropanamide], the IC50 turned out to be 19 nM.

For `Cc1ncc(Cl)cc1N[C@@H](C)c1ccc(C(=O)N[C@@H](CC2CCCC2)C(=O)Nc2ccnc(O)c2)s1` [Compound 139, (2S)-2-({5-[(1S)-1-[(5-chloro-2-methylpyridin-3-yl)amino]ethyl]thiophen-2-yl}formamido)-3-cyclopentyl-N-(2-hydroxypyridin-4-yl)propanamide], the IC50 was found to be 5 nM.

Take `Cc1ncc(Cl)cc1N[C@@H](C)c1ccc(C(=O)N[C@H](CC2CCCC2)C(=O)Nc2ccnc(O)c2)s1` [Compound 140, (2R)-2-({5-[(1S)-1-[(5-chloro-2-methylpyridin-3-yl)amino]ethyl]thiophen-2-yl}formamido)-3-cyclopentyl-N-(2-hydroxypyridin-4-yl)propanamide]: the IC50 was 402 nM.

As for `Cc1ncc(Cl)cc1N[C@@H](C)c1ccc(C(=O)N[C@@H](CC2CCCC2)C(=O)Nc2cnn(CCF)c2)s1` [Compound 141, (2S)-2-({5-[(1S)-1-[(5-chloro-2-methylpyridin-3-yl)amino]ethyl]thiophen-2-yl}formamido)-3-cyclopentyl-N-[1-(2-fluoroethyl)-1H-pyrazol-4-yl]propanamide], the 50% inhibitory concentration (IC50) amounted to 5 nM.

For `Cc1ncc(Cl)cc1N[C@@H](C)c1ccc(C(=O)N[C@H](CC2CCCC2)C(=O)Nc2ccnc(Cl)c2)s1` [Compound 142, (2R)-2-({5-[(1S)-1-[(5-chloro-2-methylpyridin-3-yl)amino]ethyl]thiophen-2-yl}formamido)-N-(2-chloropyridin-4-yl)-3-cyclopentylpropanamide], the IC50 came out at 2500 nM.

In the case of `Cc1ncc(Cl)cc1N[C@@H](C)c1ccc(C(=O)N[C@@H](CC2CCCC2)C(=O)Nc2ccnc(Cl)c2)s1` [Compound 143, (2S)-2-({5-[(1S)-1-[(5-chloro-2-methylpyridin-3-yl)amino]ethyl]thiophen-2-yl}formamido)-N-(2-chloropyridin-4-yl)-3-cyclopentylpropanamide], the IC50 amounted to 5 nM.

For `Cc1ncc(Cl)cc1N[C@@H](C)c1ccc(C(=O)N[C@@H](CC2CCCC2)C(=O)Nc2cnn(C3COC3)c2)s1` [Compound 144, (2S)-2-({5-[(1S)-1-[(5-chloro-2-methylpyridin-3-yl)amino]ethyl]thiophen-2-yl}formamido)-3-cyclopentyl-N-[1-(oxetan-3-yl)-1H-pyrazol-4-yl]propanamide], the IC50 amounted to 6 nM.

Turning to `Cc1cc(NC(=O)[C@@H](CCC(C)(C)C)NC(=O)c2ccc([C@H](C)Nc3cc(Cl)cnc3C)s2)ccn1` [Compound 145, (2R)-2-({5-[(1S)-1-[(5-chloro-2-methylpyridin-3-yl)amino]ethyl]thiophen-2-yl}formamido)-5,5-dimethyl-N-(2-methylpyridin-4-yl)hexanamide], the IC50 came to 1420 nM.

As for `CC(Nc1cc(Cl)cnc1C(N)=O)c1ccc(C(=O)N[C@@H](CC2CC3CC3C2)C(=O)Nc2cnn(C)c2)s1` (stereo partly drawn) [Compound 146, 3-{[1-(5-{[(1S)-2-{bicyclo[3.1.0]hexan-3-yl}-1-[(1-methyl-1H-pyrazol-4-yl)carbamoyl]ethyl]carbamoyl}thiophen-2-yl)ethyl]amino}-5-chloropyridine-2-carboxamide], the IC50 is 15 nM.

Source of the values: US20240116910A1, “Heterocycles as WIP1 Inhibitors” (PMV Pharmaceuticals, Inc., priority 2022, published 2024).
